Test systems include 786-0; ACHN; CCRF-CEM; HCT-116; HT-29; LOX IMVI; M14; MDA-MB-231; MDA-N; Malme-3M; NCI-H23; NCI/ADR-RES; OVCAR-3; OVCAR-8; PC-3; RPMI-8226; SK-OV-3; SN12C; U-251; UACC-257.
Holding throughout (experiment): inhibition of tumour cell growth, NCI panel, 48 h

Results on 10 compounds are retold here after ChEMBL document CHEMBL1201862, “PubChem BioAssay data set” (2004).

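Tested at 5 concentrations; 48 h exposure; 96-well plates; endpoints linearly interpolated, else capped at highest concentration. GI50 marks 50% less growth.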 Calls of active or inactive are those of the source. No stated cut-off is given here; in the data, active = GI50 up to about 1.1 µM and inactive = higher.

On to `Brc1ccc(-c2[nH]c3ccccc3c2/C=N\Nc2ccc(-c3nc4ccccc4[nH]3)cc2)cc1`, for which the GI50 with 786-0, with ACHN, in the assay with CCRF-CEM, with HCT-116, in the assay on HT-29 and with LOX IMVI was < 0.01 µM (active) throughout. Moreover, the GI50 in the assay with M14, in the assay with MDA-MB-231, in the assay with MDA-N, in the assay on Malme-3M, in the assay with NCI-H23 and in the assay with NCI/ADR-RES was < 0.01 µM (active) each time. For the same compound, the GI50 in the assay on OVCAR-3, with OVCAR-8, in the assay on PC-3, with RPMI-8226, with SK-OV-3 and in the assay with SN12C was < 0.01 µM (active) in each case. The values for the GI50 in the assay with U-251 and in the assay with UACC-257 were < 0.01 µM (active) and 3.17 µM (inactive), respectively.

For the compound `CO/C(N)=C(C#N)/N=C/c1ccco1`, the GI50 is > 100 µM (inactive) with 786-0; > 100 µM (inactive) in the assay with ACHN; 67.8 µM (inactive) with CCRF-CEM; > 100 µM (inactive) in the assay with HCT-116; > 100 µM (inactive) in the assay on HT-29; > 100 µM (inactive) in the assay on LOX IMVI. The GI50 in the assay on M14, with MDA-MB-231, in the assay with MDA-N, in the assay on Malme-3M, in the assay with NCI-H23 and with NCI/ADR-RES was > 100 µM (inactive) each time. Also, the GI50 in the assay with OVCAR-3, in the assay with OVCAR-8, with PC-3, in the assay on RPMI-8226, in the assay on SK-OV-3 and in the assay on SN12C was > 100 µM (inactive) throughout. Besides, the GI50 in the assay with U-251 and in the assay with UACC-257 was > 100 µM (inactive) each time.

With `CC(=O)NNc1nc(-c2ccc([N+](=O)[O-])cc2)c(C#N)c(=O)n1C`, the GI50 in the assay on 786-0 is 22.1 µM (inactive); with ACHN, > 100 µM (inactive); in the assay on CCRF-CEM, 50.7 µM (inactive); with HCT-116, 34.5 µM (inactive); in the assay with HT-29, 99.3 µM (inactive); in the assay with LOX IMVI it was 16.9 µM (inactive). In addition, the GI50 in the assay on M14 was > 100 µM (inactive); in the assay on MDA-MB-231, 15.8 µM (inactive); in the assay with MDA-N it was 86.7 µM (inactive); in the assay with Malme-3M it was > 100 µM (inactive); with NCI-H23 it was 29.4 µM (inactive); with NCI/ADR-RES, > 100 µM (inactive). Further, the GI50 in the assay with OVCAR-3 is 15.3 µM (inactive); with OVCAR-8, 27 µM (inactive); with PC-3, 37.7 µM (inactive); in the assay on RPMI-8226, 21.1 µM (inactive); in the assay on SK-OV-3 it was > 100 µM (inactive); with SN12C, > 100 µM (inactive). For the same compound, the GI50 in the assay on U-251 was 20.8 µM (inactive); in the assay with UACC-257, > 100 µM (inactive).

Consider `CCOC(=O)OC1(c2ccccc2)CCN(C)CC1`, for which the GI50 in the assay with 786-0, in the assay on ACHN, in the assay on CCRF-CEM, in the assay on HCT-116, in the assay on HT-29 and in the assay with LOX IMVI was > 100 µM (inactive) each time. Besides, the GI50 in the assay on M14, in the assay on MDA-MB-231, with MDA-N, in the assay with Malme-3M, in the assay on NCI-H23 and in the assay on NCI/ADR-RES was > 100 µM (inactive) throughout. The GI50 in the assay with OVCAR-3, in the assay on OVCAR-8, in the assay with PC-3, in the assay with RPMI-8226, in the assay on SK-OV-3 and in the assay on SN12C was > 100 µM (inactive) throughout. Also, the GI50 in the assay with U-251 and with UACC-257 was > 100 µM (inactive) in each case.

For the compound `CCSc1cc(=O)n(C)c(=O)n1C`, the GI50 in the assay on 786-0, with ACHN, in the assay with CCRF-CEM, in the assay with HCT-116, in the assay with HT-29 and in the assay on LOX IMVI was > 100 µM (inactive) each time. In addition, the GI50 with M14, with MDA-MB-231, in the assay with MDA-N, in the assay on Malme-3M, in the assay with NCI-H23 and in the assay on NCI/ADR-RES was > 100 µM (inactive) throughout. The GI50 in the assay with OVCAR-3, in the assay on OVCAR-8, with PC-3, in the assay on RPMI-8226, with SK-OV-3 and with SN12C was > 100 µM (inactive) throughout. For the same compound, the GI50 in the assay on U-251 and in the assay on UACC-257 was > 100 µM (inactive) in each case.

For the compound `CN1CCCN(C)C1c1cc([N+](=O)[O-])ccc1O`, the GI50 was 33 µM (inactive) in the assay on 786-0; 20.9 µM (inactive) in the assay with ACHN; 22 µM (inactive) with CCRF-CEM; 32.6 µM (inactive) in the assay on HCT-116; 33.8 µM (inactive) in the assay with HT-29; 19.4 µM (inactive) with LOX IMVI. Besides, the GI50 in the assay with M14 was 19.1 µM (inactive); in the assay on MDA-MB-231, 24.9 µM (inactive); in the assay with MDA-N it was 40.7 µM (inactive); in the assay on Malme-3M it was 23.5 µM (inactive); with NCI-H23, 89.1 µM (inactive); in the assay on NCI/ADR-RES it was 35.6 µM (inactive). For the same compound, the GI50 with OVCAR-3 was 41.8 µM (inactive); in the assay with OVCAR-8, 35.6 µM (inactive); in the assay on PC-3, 23.6 µM (inactive); in the assay on RPMI-8226, 31 µM (inactive); in the assay on SK-OV-3, 34.1 µM (inactive); in the assay with SN12C, 31.6 µM (inactive). Moreover, the GI50 in the assay with U-251 is 26.5 µM (inactive); in the assay with UACC-257, 19 µM (inactive).

On to `O=S(=O)(O)c1ccc2c(/N=N/c3ccc(Cl)cc3)c(O)ccc2c1`, for which the GI50 in the assay on 786-0, with ACHN, with CCRF-CEM, with HCT-116, in the assay on HT-29 and in the assay with LOX IMVI was > 100 µM (inactive) in each case. In addition, the GI50 in the assay on M14, in the assay with MDA-MB-231, with MDA-N, in the assay with Malme-3M, in the assay with NCI-H23 and with NCI/ADR-RES was > 100 µM (inactive) each time. Besides, the GI50 in the assay with OVCAR-3, in the assay with OVCAR-8, with PC-3, in the assay on RPMI-8226, in the assay on SK-OV-3 and with SN12C was > 100 µM (inactive) each time. The GI50 in the assay on U-251 and with UACC-257 was > 100 µM (inactive) in each case.

Take `[O-][N+](CCO)(CCO)c1ncnc2[nH]cnc12`: the GI50 in the assay on 786-0, in the assay on ACHN, in the assay with CCRF-CEM, with HCT-116, in the assay on HT-29 and in the assay with LOX IMVI was > 100 µM (inactive) throughout. The GI50 in the assay on M14, in the assay with MDA-MB-231, in the assay on MDA-N, in the assay with Malme-3M, in the assay with NCI-H23 and in the assay on NCI/ADR-RES was > 100 µM (inactive) throughout. The GI50 in the assay with OVCAR-3, in the assay with OVCAR-8, in the assay with PC-3, in the assay on RPMI-8226, in the assay on SK-OV-3 and with SN12C was > 100 µM (inactive) each time. In addition, the GI50 in the assay on U-251 and with UACC-257 was > 100 µM (inactive) each time.

For `CC(C)(C)OC(=O)N1C(=O)OC[C@@H]2C=C[C@@H]21`, the GI50 in the assay with 786-0, with ACHN, in the assay with CCRF-CEM, in the assay with HCT-116, in the assay on HT-29 and with LOX IMVI was > 100 µM (inactive) in each case. For the same compound, the GI50 with M14, in the assay with MDA-MB-231, in the assay with MDA-N, in the assay on Malme-3M, with NCI-H23 and in the assay on NCI/ADR-RES was > 100 µM (inactive) throughout. Further, the GI50 in the assay on OVCAR-3, in the assay on OVCAR-8, with PC-3, in the assay with RPMI-8226, in the assay with SK-OV-3 and in the assay with SN12C was > 100 µM (inactive) each time. The GI50 in the assay with U-251 and in the assay with UACC-257 was > 100 µM (inactive) in each case.

As to `COC(=O)C1=C(C)NC(C)=C(C(=O)OC)C1c1ccc(N=O)cc1`, the GI50 was 14.6 µM (inactive) in the assay with 786-0; 13.8 µM (inactive) in the assay on ACHN; 0.897 µM (active) in the assay with CCRF-CEM; 6.12 µM (inactive) with HCT-116; 13.6 µM (inactive) in the assay with HT-29; 5.9 µM (inactive) in the assay with LOX IMVI. For the same compound, the GI50 is 11.2 µM (inactive) with M14; 11.4 µM (inactive) with MDA-MB-231; 6.75 µM (inactive) in the assay with MDA-N; 11.5 µM (inactive) in the assay with Malme-3M; 16.2 µM (inactive) with NCI-H23; 20.8 µM (inactive) in the assay on NCI/ADR-RES. For the same compound, the GI50 in the assay with OVCAR-3 was 13.6 µM (inactive); with OVCAR-8, 8.45 µM (inactive); in the assay on PC-3, 15.8 µM (inactive); with RPMI-8226, 1.58 µM (inactive); with SK-OV-3, 16.6 µM (inactive); in the assay on SN12C, 19.5 µM (inactive). The values for the GI50 in the assay on U-251 and in the assay with UACC-257 were 17.4 µM (inactive) and 8.91 µM (inactive), respectively.
